# According to patent publication US4395401A, “Renally active dipeptides” (SmithKline Beckman Corporation, priority 1981, dated 1983):
# Experiments:
# anesthetized dogs [1] = test: Secondary testing (ED15); type: in vivo, dog
# anesthetized dogs [2] = test: Infusion to anesthetized dogs, measuring renal blood flow and renal vascular resistance (procedure of U.S. Pat. No. 4,197,297); type: in vivo, dog
# From the text: Specific results are included in the examples.
# [3] = infusion 30 μg/kg/min, anesthetized dog
# [4] = infusion at 30 and 300 μg/kg/min
# [5] = 300 μg/kg/min, anesthetized dog
# [6] = infusion 300 μg/kg/min, anesthetized dog
structure (smiles),measurement,setting,value
"NCCc1ccc(O)c(O)c1 [Dopamine, reference compound]",ED15,anesthetized dogs [1],0.0035 mg/kg
"CC(=O)O.COc1ccc(CC(C)(NC(=O)[C@@H]2CCCN2C(=O)CCCc2ccc(O)cc2)C(=O)N[C@@H](CCCNC(=N)N)C(=O)O)cc1OC (stereo partly drawn) [Example 1, N-4-(4'-hydroxyphenyl)-butyryl-L-prolyl-D,L-α-methyl-3,4-dimethoxyphenylalanyl-L-arginine acetic acid salt]",ED15,anesthetized dogs [1],0.506 mg/kg
same,decrease of renal vascular resistance,anesthetized dogs [2]; [3],-21.3
same,increase of renal blood flow,anesthetized dogs [2]; [3],+18%
"COc1ccc(CC(C)(NC(=O)[C@@H]2CCCN2C(=O)CCCc2ccc(O)cc2)C(=O)NCCCN)cc1OC.Cl (stereo partly drawn) [Example 2, N-4-(4'-hydroxyphenyl)-butyryl-L-prolyl-D,L-α-methyl-3,4-dimethoxyphenylalanine 3-aminopropylamide hydrochloride]",decrease of renal vascular resistance,anesthetized dogs [2]; infusion 3 μg/kg/min,-11%
same,increase of renal blood flow,anesthetized dogs [2]; infusion 3 μg/kg/min,+13.5%
same,renal blood flow (in words),anesthetized dogs [2]; [4],increased renal blood
same,renal vascular resistance (in words),anesthetized dogs [2]; [4],decreased renal vascular resistance
"CC(=O)O.CC(Cc1ccc(O)cc1)(NC(=O)[C@@H]1CCCN1C(=O)CCCc1ccc(O)cc1)C(=O)N[C@@H](CCCNC(=N)N)C(=O)O (stereo partly drawn) [Example 3, N-4-(4'-hydroxyphenyl)-butyryl-L-prolyl-D,L-α-methyltyrosyl-L-arginine acetic acid salt]",decrease of renal vascular resistance,"anesthetized dogs [2]; 3 μg/kg/min, anesthetized dog",-12
same,increase of renal blood flow,"anesthetized dogs [2]; 3 μg/kg/min, anesthetized dog",+8.0
same,increase of renal blood flow,"anesthetized dogs [2]; 30 μg/kg/min, anesthetized dog",+12.0
same,decrease of renal vascular resistance,anesthetized dogs [2]; [5],-11
same,increase of renal blood flow,anesthetized dogs [2]; [5],+11.0
same,increase of renal blood flow after a cumulative dose,"anesthetized dogs [2]; cumulative dose at 3, 30 and 300 μg/kg/min",28%
same,decrease of renal vascular resistance,anesthetized dogs [2]; [3],-9
"CC(Cc1ccc(O)cc1)(NC(=O)[C@@H]1CCCN1C(=O)CCCc1ccc(O)cc1)C(=O)NCCCN.Cl (stereo partly drawn) [Example 4, N-4-(4'-hydroxyphenylbutyryl)-L-prolyl-D,L-α-methyltyrosine ω-aminopropylamide, hydrochloride]",decrease of renal vascular resistance,"anesthetized dogs [2]; 3 μg/kg/min, anesthetized dog",-9.5
same,increase of renal blood flow,"anesthetized dogs [2]; 3 μg/kg/min, anesthetized dog",+8.5
"CC(Cc1ccccc1)(NC(=O)[C@@H]1CCCN1C(=O)CCCc1ccc(O)cc1)C(=O)NCCCN.Cl (stereo partly drawn) [Example 5, N-4-(4'-hydroxyphenylbutyryl)-L-prolyl-D,L-α-methylphenylalanine ω-aminopropylamide, hydrochloride]",cumulative drug effect,anesthetized dogs [2]; infused in anesthetized dogs,demonstrated a cumulative drug effect
same,increase of renal blood flow,anesthetized dogs [2]; [6],+11.7%
same,decrease of vascular renal resistance,"anesthetized dogs [2]; infusion 300 μg/kg/min, anesthetized dogs",11.3%
"CC(=O)O.C[C@@](Cc1ccccc1)(NC(=O)[C@@H]1CCCN1C(=O)CCCc1ccc(O)cc1)C(=O)N[C@@H](CCCNC(=N)N)C(=O)O.O [Example 6, N-4-(4'-hydroxyphenyl)-butyryl-L-prolyl-D,L-α-methylphenylalanyl-L-arginine 1.5HOAc.1H2 O]",increase of renal blood flow,anesthetized dogs [2]; [3],+12%
same,increase of renal blood flow,anesthetized dogs [2]; [6],+11%
